One test has as its target T1, DYRK1A (Homo sapiens, UniProt Q13627).
T1 construct: full-length human kinases from Carna Biosciences; purchased Carna Biosciences 04-130
Nature of the test: Kinase TR-FRET assay, DYRK1A. The test is classed as biochemical.

Test [1] has as its target T2, His-TEV-DYRK1A Kinase domain (aa127-485) (Homo sapiens, UniProt Q13627).
T2 construct: His-TEV-DYRK1A Kinase domain (aa127-485); His (N); TEV cleavage site (N)
The test can be described thus: Kinase ADP assay (ADP Hunter Plus). The class given is biochemical.

The target of the next test is T3, DYRK1B (Homo sapiens, UniProt Q9Y463).
T3 construct: full-length human kinases from Carna Biosciences; purchased Carna Biosciences 04-131
Nature of the test: Kinase TR-FRET assay, DYRK1B. The class given is biochemical.

The target in a further test is T4, phospho-Ser520-DYRK1A (Homo sapiens, UniProt Q13627).
T4 construct: full-length, wild-type human DYRK1A (NM_001396) with an HA tag; expressed in transfected cells; host or cells: human U2-OS osteosarcoma cells, pcDNA3.1 plasmid
Nature of the test: Cellular DYRK1A autophosphorylation assay in U2-OS cells. The class given is cell-based. Particulars: 5 hours exposure, read-out: IC50 (μM) P-Ser520-Dyrk1A-Cell assay.

In a further test the target is T5, CLK1 (Homo sapiens, UniProt P49759).
T5 construct: full-length human kinases from Carna Biosciences; purchased Carna Biosciences 04-126
The test can be described thus: Kinase TR-FRET assay, CLK1. The class given is biochemical.

T3 sequence (Q9Y463 whole entry): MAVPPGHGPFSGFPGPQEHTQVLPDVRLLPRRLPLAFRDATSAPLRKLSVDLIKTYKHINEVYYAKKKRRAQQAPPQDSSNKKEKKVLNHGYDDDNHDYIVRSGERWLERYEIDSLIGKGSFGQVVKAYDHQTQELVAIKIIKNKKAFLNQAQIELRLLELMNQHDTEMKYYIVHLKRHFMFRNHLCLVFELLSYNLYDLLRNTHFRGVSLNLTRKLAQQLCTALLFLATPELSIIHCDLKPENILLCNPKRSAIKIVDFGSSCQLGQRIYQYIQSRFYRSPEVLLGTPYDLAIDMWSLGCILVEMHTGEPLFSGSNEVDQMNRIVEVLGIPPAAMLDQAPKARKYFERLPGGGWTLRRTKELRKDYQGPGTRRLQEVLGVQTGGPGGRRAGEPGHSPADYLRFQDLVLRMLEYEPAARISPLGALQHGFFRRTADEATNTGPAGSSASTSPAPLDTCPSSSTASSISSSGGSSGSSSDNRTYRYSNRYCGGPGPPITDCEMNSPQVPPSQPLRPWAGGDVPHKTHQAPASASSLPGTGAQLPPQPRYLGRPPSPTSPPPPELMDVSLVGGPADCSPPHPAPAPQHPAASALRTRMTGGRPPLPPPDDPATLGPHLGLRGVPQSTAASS
T5 sequence (P49759 1-526 isoform P49759-3): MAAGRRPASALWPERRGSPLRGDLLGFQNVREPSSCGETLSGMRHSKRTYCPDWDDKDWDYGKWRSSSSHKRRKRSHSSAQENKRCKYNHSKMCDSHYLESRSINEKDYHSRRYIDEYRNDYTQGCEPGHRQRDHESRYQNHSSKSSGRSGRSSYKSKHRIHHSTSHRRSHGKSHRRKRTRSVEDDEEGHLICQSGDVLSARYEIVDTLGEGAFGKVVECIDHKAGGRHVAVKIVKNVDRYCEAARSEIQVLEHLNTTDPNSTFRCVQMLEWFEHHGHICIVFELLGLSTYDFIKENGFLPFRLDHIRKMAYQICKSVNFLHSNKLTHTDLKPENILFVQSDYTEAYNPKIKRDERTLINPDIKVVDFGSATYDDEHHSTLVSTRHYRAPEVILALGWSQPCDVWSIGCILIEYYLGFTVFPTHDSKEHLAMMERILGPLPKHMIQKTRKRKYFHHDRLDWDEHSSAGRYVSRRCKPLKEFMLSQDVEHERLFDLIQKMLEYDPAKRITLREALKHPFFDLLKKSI

Regarding `Cc1cc(-c2c[nH]c3nc(C)nc(OCc4ccsc4)c23)ccn1` [Example 5, 2-methyl-5-(2-methylpyridin-4-yl)-4-(thiophen-3-ylmethoxy)-7H-pyrrolo[2,3-d]pyrimidine], the half-maximal inhibitory concentration (IC50) is 0.0094 µM against DYRK1A, 0.015 µM in test [1] and 0.0005 µM on DYRK1B.

Turning to `Cc1nc(OCc2ccccc2)c2c(-c3ccncc3)c[nH]c2n1` [Example 11, 4-(benzyloxy)-2-methyl-5-(pyridin-4-yl)-7H-pyrrolo[2,3-d]pyrimidine], the values for the 50% inhibitory concentration (IC50) (on DYRK1A; in test [1]; against DYRK1B) were 0.0173 µM, 0.012 µM and 0.0132 µM, respectively.

Turning to `Cc1nc(OCC2CCCC2)c2c(-c3ccncc3)c[nH]c2n1` [Example 15, 4-(cyclopentylmethoxy)-2-methyl-5-(pyridin-4-yl)-7H-pyrrolo[2,3-d]pyrimidine], the results for the IC50 (at DYRK1A; in test [1]; at DYRK1B) were 0.0355 µM, 0.032 µM and 0.0143 µM, respectively.

Turning to `Cc1nc(OCc2ccc(C(C)C)cc2)c2c(-c3ccnc(N)c3)c[nH]c2n1` [Example 27, 4-{2-methyl-4-{(4-{propan-2-yl)benzyl]oxy}-7H-pyrrolo[2,3-d]pyrimidin-5-yl)pyridin-2-amine], the IC50 at DYRK1A amounted to 0.0444 µM; in test [1], 0.04 µM; on DYRK1B, 0.0522 µM.

Consider `Cc1cc(-c2c[nH]c3nc(C)nc(NCc4ccsc4)c23)ccn1` [Example 45, 2-methyl-5-(2-methylpyridin-4-yl)-N-(thiophen-3-ylmethyl)-7H-pyrrolo[2,3-d]pyrimidin-4-amine], for which the IC50 turned out to be 0.686 µM at phospho-Ser520-DYRK1A, 0.2 µM against DYRK1A and 0.496 µM in test [1].

Turning to `Cc1nc(NCC2CCCCC2)c2c(-c3ccnc(N)c3)c[nH]c2n1` [Example 48, 5-(2-aminopyridin-4-yl)-N-(cyclohexylmethyl)-2-methyl-7H-pyrrolo[2,3-d]pyrimidin-4-amine], the figures for the IC50 (on phospho-Ser520-DYRK1A; against DYRK1A; in test [1]) were 0.208 µM, 0.043 µM and 0.044 µM, respectively.

With `Cc1nc(NCc2ccccc2F)c2c(-c3ccnc(N)c3)c[nH]c2n1` [Example 51, 5-(2-aminopyridin-4-yl)-N-(2-fluorobenzyl)-2-methyl-7H-pyrrolo[2,3-d]pyrimidin-4-amine], the IC50 is 0.126 µM on phospho-Ser520-DYRK1A, 0.0029 µM against DYRK1A and 0.013 µM in test [1].

Regarding `Cc1nc(NCc2ccccn2)c2c(-c3ccnc(N)c3)c[nH]c2n1` [Example 53, 5-(2-aminopyridin-4-yl)-2-methyl-N-(pyridin-2-ylmethyl)-7H-pyrrolo[2,3-d]pyrimidin-4-amine], the IC50 at phospho-Ser520-DYRK1A is 0.238 µM; against DYRK1A it was 0.0233 µM; in test [1] it was 0.021 µM.

For `Cc1nc(NCc2ccc(F)cc2)c2c(-c3ccnc(N)c3)c[nH]c2n1` [Example 54, 5-(2-aminopyridin-4-yl)-N-(4-fluorobenzyl)-2-methyl-7H-pyrrolo[2,3-d]pyrimidin-4-amine], the half-inhibitory concentration (IC50) worked out at 0.511 µM at phospho-Ser520-DYRK1A, 0.0129 µM against DYRK1A and 0.032 µM in test [1].

Consider `Cc1nc(NCc2cc(C)on2)c2c(-c3ccnc(N)c3)c[nH]c2n1` [Example 59, 5-(2-aminopyridin-4-yl)-2-methyl-N-[(5-methyl-1,2-oxazol-3-yl)methyl]-7H-pyrrolo[2,3-d]pyrimidin-4-amine], for which the IC50 at phospho-Ser520-DYRK1A is 0.259 µM; at DYRK1A, 0.0102 µM; in test [1] it was 0.042 µM; against DYRK1B it was 0.0191 µM.

Consider `Cc1nc(NCc2ncccc2C)c2c(-c3ccnc(N)c3)c[nH]c2n1` [Example 60, 5-(2-aminopyridin-4-yl)-2-methyl-N-[(3-methylpyridin-2-yl)methyl]-7H-pyrrolo[2,3-d]pyrimidin-4-amine], for which the values for the IC50 (at phospho-Ser520-DYRK1A; against DYRK1A; in test [1]) were 0.0206 µM, 0.003 µM and 0.011 µM, respectively.

For the compound `Cc1nc(NCc2ccc(F)cc2F)c2c(-c3ccnc(N)c3)c[nH]c2n1` [Example 63, 5-(2-aminopyridin-4-yl)-N-(2,4-difluorobenzyl)-2-methyl-7H-pyrrolo[2,3-d]pyrimidin-4-amine], the IC50 at phospho-Ser520-DYRK1A came to 0.0408 µM; at DYRK1A, 0.0107 µM; in test [1] it was 0.014 µM.

`Cc1nc(NCc2ccccc2C(F)(F)F)c2c(-c3ccnc(N)c3)c[nH]c2n1` [Example 64, 5-(2-aminopyridin-4-yl)-2-methyl-N-[2-(trifluoromethyl)benzyl]-7H-pyrrolo[2,3-d]pyrimidin-4-amine]: the IC50 on phospho-Ser520-DYRK1A is 0.234 µM; against DYRK1A, 0.0059 µM; in test [1], 0.015 µM; at DYRK1B, 0.0093 µM.

As for `Cc1nc(NCC2CC2)c2c(-c3ccnc(N)c3)c[nH]c2n1` [Example 65, 5-(2-aminopyridin-4-yl)-N-(cyclopropymethyl)-2-methyl-7H-pyrrolo[2,3-d]pyrimidin-4-amine], the IC50 at phospho-Ser520-DYRK1A was 0.898 µM; against DYRK1A, 0.0709 µM; in test [1], 0.069 µM.

For the compound `Cc1nc(N[C@@H]2CCc3ccccc32)c2c(-c3ccnc(N)c3)c[nH]c2n1` [Example 76, 5-(2-aminopyridin-4-yl)-N-[(1R)-2,3-dihydro-1H-inden-1-yl]-2-methyl-7H-pyrrolo[2,3-d]pyrimidin-4-amine], the IC50 was 0.0672 µM at phospho-Ser520-DYRK1A, 0.0063 µM against DYRK1A, 0.01 µM in test [1] and 0.0005 µM against DYRK1B.

With `CCOc1ccccc1CNc1nc(C)nc2[nH]cc(-c3ccnc(N)c3)c12` [Example 79, 5-(2-aminopyridin-4-yl)-N-(2-ethoxybenzyl)-2-methyl-7H-pyrrolo[2,3-d]pyrimidin-4-amine], the IC50 at phospho-Ser520-DYRK1A came out at 0.105 µM; against DYRK1A it was 0.0021 µM; in test [1], 0.008 µM; against DYRK1B it was 0.008 µM.

Regarding `COc1cccc(C(F)(F)F)c1CNc1nc(C)nc2[nH]cc(-c3ccnc(N)c3)c12` [Example 80, 5-(2-aminopyridin-4-yl)-N-[2-methoxy-6-(trifluoromethyl)benzyl]-2-methyl-7H-pyrrolo[2,3-d]pyrimidin-4-amine], the half-maximal inhibitory concentration (IC50) at phospho-Ser520-DYRK1A worked out at 0.0156 µM; on DYRK1A, 0.0059 µM; in test [1], 0.004 µM; on DYRK1B, 0.0106 µM.

On to `Cc1nc(NCc2cccc(Cl)c2Cl)c2c(-c3ccnc(N)c3)c[nH]c2n1` [Example 81, 5-(2-aminopyridin-4-yl)-N-(2,3-dichlorbenzyl)-2-methyl-7H-pyrrolo[2,3-d]pyrimidin-4-amine], for which the half-maximal inhibitory concentration (IC50) at phospho-Ser520-DYRK1A stood at 0.166 µM; against DYRK1A, 0.0085 µM; in test [1], 0.014 µM; against DYRK1B it was 0.0141 µM.

As to `Cc1nc(NC(C)c2c(F)cccc2F)c2c(-c3ccnc(N)c3)c[nH]c2n1` (centres unmarked) [Example 82, 5-(2-aminopyridin-4-yl)-N-[1-(2,6-difluorophenyl)ethyl]-2-methyl-7H-pyrrolo[2,3-d]pyrimidin-4-amine], the IC50 against DYRK1A came to 0.001 µM; in test [1], 0.045 µM; against DYRK1B, 0.0199 µM.

As for `Cc1nc(N[C@@H]2C[C@H]3CC[C@@H]2C3)c2c(-c3ccnc(N)c3)c[nH]c2n1` [Example 83, 5-(2-aminopyridin-4-yl)-N-[(1R,2R,4S)-bicyclo[2.2.1]hept-2-yl]-2-methyl-7H-pyrrolo[2,3-d]pyrimidin-4-amine], the IC50 on DYRK1A stood at 0.0006 µM; in test [1] it was 0.081 µM; against DYRK1B, 0.0404 µM.

For `Cc1nc(NCc2c(C)noc2C)c2c(-c3ccnc(N)c3)c[nH]c2n1` [Example 95, 5-(2-aminopyridin-4-yl)-N-[(3,5-dimethyl-1,2-oxazol-4-yl)methyl]-2-methyl-7H-pyrrolo[2,3-d]pyrimidin-4-amine], the IC50 was 0.534 µM at phospho-Ser520-DYRK1A, 0.0979 µM at DYRK1A and 0.066 µM in test [1].

In the case of `COc1cccnc1CNc1nc(C)nc2[nH]cc(-c3ccnc(N)c3)c12` [Example 98, 5-(2-aminopyridin-4-yl)-N-[(3-methoxypyridin-2-yl)methyl]-2-methyl-7H-pyrrolo[2,3-d]pyrimidin-4-amine], the figures for the IC50 (at CLK1; on phospho-Ser520-DYRK1A; in test [1]) were 0.0241 µM, 0.192 µM and 0.022 µM, respectively.

Take `COc1ccccc1[C@H](C)Nc1nc(C)nc2[nH]cc(-c3ccnc(N)c3)c12` [Example 106, 5-(2-aminopyridin-4-yl)-N-[(1S)-1-(2-methoxyphenyl)ethyl]-2-methyl-7H-pyrrolo[2,3-d]pyrimidin-4-amine]: the IC50 is 0.0171 µM at CLK1, 0.177 µM on phospho-Ser520-DYRK1A and 0.018 µM in test [1].

As for `Cc1nc(N2CCc3ccccc3C2)c2c(-c3cc(N)nc(N)c3)c[nH]c2n1` [Example 114, 4-[4-(3,4-dihydroisoquinolin-2(1H)-yl)-2-methyl-7H-pyrrolo[2,3-d]pyrimidin-5-yl]pyridine-2,6-diamine], the values for the IC50 (against CLK1; at phospho-Ser520-DYRK1A; in test [1]) were 0.0162 µM, 0.006 µM and 0.009 µM, respectively.

For `COc1cccc(F)c1CNc1nc(C)nc2[nH]cc(-c3cc(N)nc(N)c3)c12` [Example 116, 4-{4-[(2-fluoro-6-methoxybenzyl)amino]-2-methyl-7H-pyrrolo[2,3-d]pyrimidin-5-yl}pyridine-2,6-diamine], the IC50 came out at 0.0136 µM against CLK1, 0.0009 µM at phospho-Ser520-DYRK1A and 0.005 µM in test [1].

`Cc1nc(NCC(F)(F)c2ccccc2)c2c(-c3ccnc(N)c3)c[nH]c2n1` [Example 123, 5-(2-aminopyridin-4-yl)-N-(2,2-difluoro-2-phenylethyl)-2-methyl-7H-pyrrolo[2,3-d]pyrimidin-4-amine]: the values for the IC50 (at CLK1; in test [1]) were 0.0615 µM and 0.071 µM, respectively.

For `Cc1nc(-c2ccccc2)c2c(-c3ccnc(N)c3)c[nH]c2n1` [Example 163], the IC50 against CLK1 was 0.104 µM; on phospho-Ser520-DYRK1A, 0.197 µM; in test [1], 0.026 µM.

For the origin of these results see patent US20180273538A1, “PYRROLO[2,3-d]PYRIMIDINE DERIVATIVES, A PROCESS FOR THEIR PREPARATION AND PHARMACEUTICAL COMPOSITIONS CONTAINING THEM” (LES LABORATOIRES SERVIER, priority 2015, published 2018).
